# System: ERK phosphorylation
# Experiment: Analysis of ERK phosphorylation (Alphascreen SureFire Phospho-ERK 1/2)
# Type: cell-based, human and mouse
# Settings: cells treated for 1 h; human melanoma cells, human and mouse colon cancer cells; read-out: Minimum concentration (nM) required for ≧80% inhibition of pERK
# Method: This assay was carried out with human melanoma cells, human and mouse colon cancer cells. Cells were treated for 1 h with various concentrations of test compounds. ERK phosphorylation analysis was performed using the Alphascreen SureFire Phospho-ERK 1/2 Kit (Perkin Elmer), by following the manufacturer's instructions. % inhibition of ERK phosphorylation was determined as: 100−{(RFU test−RFU lysis buffer control)/(RFU vehicle treated control−RFU lysis buffer control)}×100. Percentage inhibition at concentrations of 0.01 nM, 0.03 nM, 0.1-0.9 nM, 1 nM to 3 nM, 4-100 nM, and >100 nM, for the stated examples is setworth here. The percentage inhibition at the above depicted concentrations for the compounds stated are given in the following groups.
structure (smiles),measurement,value
"Cc1c(=O)n(C)c(Nc2ccc(I)cc2F)c2c(=O)n(C3CC3)c(=O)n(-c3cccc(CC(=O)NC4COC4)c3)c12 [Compound 31, 2-(3-(3-cyclopropyl-5-((2-fluoro-4-iodophenyl)amino)-6,8-dimethyl-2,4,7-trioxo-3,4,6,7-tetrahydropyrido[4,3-d]pyrimidin-1(2H)-yl)phenyl)-N-(oxetan-3-yl)acetamide]",IC80,0.01 nM
"Cc1c(=O)n(C)c(Nc2ccc(I)cc2F)c2c(=O)n(C3CC3)c(=O)n(-c3cccc(C(O)C(N)=O)c3)c12 (stereo not shown) [Compound 32, 2-(3-(3-cyclopropyl-5-((2-fluoro-4-iodophenyl)amino)-6,8-dimethyl-2,4,7-trioxo-3,4,6,7-tetrahydropyrido[4,3-d]pyrimidin-1(2H)-yl)phenyl)-2-hydroxyacetamide]",IC80,1 to 3 nM
"Cc1c(=O)n(C)c(Nc2ccc(I)cc2F)c2c(=O)n(C3CC3)c(=O)n(-c3cccc(CC(=O)N4CC(O)C4)c3)c12 [Compound 33, 3-cyclopropyl-5-((2-fluoro-4-iodophenyl)amino)-1-(3-(2-(3-hydroxyazetidin-1-yl)-2-oxoethyl)phenyl)-6,8-dimethylpyrido[4,3-d]pyrimidine-2,4,7(1H,3H,6H)-trione]",IC80,1 to 3 nM
"Cc1c(=O)n(C)c(Nc2ccc(I)cc2F)c2c(=O)n(C3CC3)c(=O)n(-c3cccc(CCC(N)=O)c3)c12 [Compound 34, 3-(3-(3-cyclopropyl-5-((2-fluoro-4-iodophenyl)amino)-6,8-dimethyl-2,4,7-trioxo-3,4,6,7-tetrahydropyrido[4,3-d]pyrimidin-1(2H)-yl)phenyl)propanamide]",IC80,1 to 3 nM
"Cc1c(=O)n(C)c(Nc2ccc(I)cc2F)c2c(=O)n(C3CC3)c(=O)n(-c3cccc(OCC(N)=O)c3)c12 [Compound 35, 2-(3-(3-cyclopropyl-5-((2-fluoro-4-iodophenyl)amino)-6,8-dimethyl-2,4,7-trioxo-3,4,6,7-tetrahydropyrido[4,3-d]pyrimidin-1(2H)-yl)phenoxy)acetamide]",IC80,0.03 nM
"CNC(=O)CCc1cccc(-n2c(=O)n(C3CC3)c(=O)c3c(Nc4ccc(I)cc4F)n(C)c(=O)c(C)c32)c1 [Compound 36, 3-(3-(3-cyclopropyl-5-((2-fluoro-4-iodophenyl)amino)-6,8-dimethyl-2,4,7-trioxo-3,4,6,7-tetrahydropyrido[4,3-d]pyrimidin-1(2H)-yl)phenyl)-N-methylpropanamide]",IC80,1 to 3 nM
"Cc1c(=O)n(C)c(Nc2ccc(I)cc2F)c2c(=O)n(C3CC3)c(=O)n(-c3cccc(C(=O)N4CCS(=O)(=O)C4)c3)c12 [Compound 38, 3-cyclopropyl-1-(3-(1,1-dioxidothiazolidine-3-carbonyl)phenyl)-5-((2-fluoro-4-iodophenyl)amino)-6,8-dimethylpyrido[4,3-d]pyrimidine-2,4,7(1H,3H,6H)-trione]",IC80,0.1 to 0.9 nM
"Cc1c(=O)n(C)c(Nc2ccc(I)cc2F)c2c(=O)n(C3CC3)c(=O)n(-c3cccc(C(=O)N4CCS(=O)(=O)CC4)c3)c12 [Compound 39, 3-cyclopropyl-1-(3-(1,1-dioxidothiomorpholine-4-carbonyl)phenyl)-5-((2-fluoro-4-iodophenyl)amino)-6,8-dimethylpyrido[4,3-d]pyrimidine-2,4,7(1H,3H,6H)-trione]",IC80,1 to 3 nM
"Cc1c(=O)n(C)c(Nc2ccc(I)cc2F)c2c(=O)n(C3CC3)c(=O)n(-c3cccc(CCC(=O)NC4CC4)c3)c12 [Compound 40, N-cyclopropyl-3-(3-(3-cyclopropyl-5-((2-fluoro-4-iodophenyl)amino)-6,8-dimethyl-2,4,7-trioxo-3,4,6,7-tetrahydropyrido[4,3-d]pyrimidin-1(2H)-yl)phenyl)propanamide]",IC80,4 to 100 nM
"Cc1c(=O)n(C)c(Nc2ccc(I)cc2F)c2c(=O)n(C)c(=O)n(-c3cccc(OCC(=O)NC4CC4)c3)c12 [Compound 41, N-cyclopropyl-2-(3-(5-((2-fluoro-4-iodophenyl)amino)-3,6,8-trimethyl-2,4,7-trioxo-3,4,6,7-tetrahydropyrido[4,3-d]pyrimidin-1(2H)-yl)phenoxy)acetamide]",IC80,0.1 to 0.9 nM
"Cc1c(=O)n(C)c(Nc2ccc(I)cc2F)c2c(=O)n(C)c(=O)n(-c3cccc(CC(N)=O)c3)c12 [Compound 42, 2-(3-(5-((2-fluoro-4-iodophenyl)amino)-3,6,8-trimethyl-2,4,7-trioxo-3,4,6,7-tetrahydropyrido[4,3-d]pyrimidin-1(2H)-yl)phenyl)acetamide]",IC80,0.1 to 0.9 nM
"Cc1c(=O)n(C)c(Nc2ccc(I)cc2F)c2c(=O)n(C)c(=O)n(-c3cccc(C(C)(C)C(N)=O)c3)c12 [Compound 43, 2-(3-(5-((2-fluoro-4-iodophenyl)amino)-3,6,8-trimethyl-2,4,7-trioxo-3,4,6,7-tetra hydropyrido[4,3-d]pyrimidin-1(2H)-yl)phenyl)-2-methylpropanamide]",IC80,0.1 to 0.9 nM
"Cc1c(=O)n(C)c(Nc2ccc(I)cc2F)c2c(=O)n(C)c(=O)n(-c3cccc(CC(=O)N(C)C)c3)c12 [Compound 44, 2-(3-(5-((2-fluoro-4-iodophenyl)amino)-3,6,8-trimethyl-2,4,7-trioxo-3,4,6,7-tetra hydropyrido[4,3-d]pyrimidin-1(2H)-yl)phenyl)-N,N-dimethylacetamide]",IC80,0.1 to 0.9 nM
"Cc1c(=O)n(C)c(Nc2ccc(I)cc2F)c2c(=O)n(C)c(=O)n(-c3cccc(C(F)(F)C(N)=O)c3)c12 [Compound 45, 2,2-difluoro-2-(3-(5-((2-fluoro-4-iodophenyl)amino)-3,6,8-trimethyl-2,4,7-trioxo-3,4,6,7-tetrahydropyrido[4,3-d]pyrimidin-1(2H)-yl)phenyl)acetamide]",IC80,1 to 3 nM
"Cc1c(=O)n(C)c(Nc2ccc(I)cc2F)c2c(=O)n(C)c(=O)n(-c3cccc(CC(=O)N4CCC4)c3)c12 [Compound 46, 1-(3-(2-(azetidin-1-yl)-2-oxoethyl)phenyl)-5-((2-fluoro-4-iodophenyl)amino)-3,6,8-trimethylpyrido[4,3-d]pyrimidine-2,4,7(1H,3H,6H)-trione]",IC80,0.01 nM
"Cc1c(=O)n(C)c(Nc2ccc(I)cc2F)c2c(=O)n(C)c(=O)n(-c3cccc(C(O)C(N)=O)c3)c12 (stereo not shown) [Compound 47, 2-(3-(5-((2-fluoro-4-iodophenyl)amino)-3,6,8-trimethyl-2,4,7-trioxo-3,4,6,7-tetrahydropyrido[4,3-d]pyrimidin-1(2H)-yl)phenyl)-2-hydroxyacetamide]",IC80,0.1 to 0.9 nM
"Cc1c(=O)n(C)c(Nc2ccc(I)cc2F)c2c(=O)n(C)c(=O)n(-c3cccc(CC(=O)N4CC(O)C4)c3)c12 [Compound 48, 5-((2-fluoro-4-iodophenyl)amino)-1-(3-(2-(3-hydroxyazetidin-1-yl)-2-oxoethyl)phenyl)-3,6,8-trimethylpyrido[4,3-d]pyrimidine-2,4,7(1H,3H,6H)-trione]",IC80,1 to 3 nM
"Cc1c(=O)n(C)c(Nc2ccc(I)cc2F)c2c(=O)n(C)c(=O)n(-c3cccc(C(=O)NC4COC4)c3)c12 [Compound 49, 3-(5-((2-fluoro-4-iodophenyl)amino)-3,6,8-trimethyl-2,4,7-trioxo-3,4,6,7-tetra hydropyrido[4,3-d]pyrimidin-1(2H)-yl)-N-(oxetan-3-yl)benzamide]",IC80,0.01 nM
"Cc1c(=O)n(C)c(Nc2ccc(I)cc2F)c2c(=O)n(C)c(=O)n(-c3cccc(CC(=O)NC4COC4)c3)c12 [Compound 50, 2-(3-(5-((2-fluoro-4-iodophenyl)amino)-3,6,8-trimethyl-2,4,7-trioxo-3,4,6,7-tetrahydropyrido[4,3-d]pyrimidin-1(2H)-yl)phenyl)-N-(oxetan-3-yl)acetamide]",IC80,4 to 100 nM
"Cc1c(=O)n(C)c(Nc2ccc(I)cc2F)c2c(=O)n(C)c(=O)n(-c3cccc(C(=O)NC4CCOC4)c3)c12 (stereo not shown) [Compound 51, 3-(5-((2-fluoro-4-iodophenyl)amino)-3,6,8-trimethyl-2,4,7-trioxo-3,4,6,7-tetrahydropyrido[4,3-d]pyrimidin-1(2H)-yl)-N-(tetrahydrofuran-3-yl)benzamide]",IC80,0.01 nM
"Cc1c(=O)n(C)c(Nc2ccc(I)cc2F)c2c(=O)n(C)c(=O)n(-c3cccc(C(=O)NC4CCOCC4)c3)c12 [Compound 52, 3-(5-((2-fluoro-4-iodophenyl)amino)-3,6,8-trimethyl-2,4,7-trioxo-3,4,6,7-tetrahydropyrido[4,3-d]pyrimidin-1(2H)-yl)-N-(tetrahydro-2H-pyran-4-yl)benzamide]",IC80,4 to 100 nM
"Cc1c(=O)n(C)c(Nc2ccc(I)cc2F)c2c(=O)n(C)c(=O)n(-c3cccc(C(=O)NC4(CO)CC4)c3)c12 [Compound 53, 3-(5-((2-fluoro-4-iodophenyl)amino)-3,6,8-trimethyl-2,4,7-trioxo-3,4,6,7-tetrahydropyrido[4,3-d]pyrimidin-1(2H)-yl)-N-(1-(hydroxymethyl)cyclopropyl)benzamide]",IC80,4 to 100 nM
"Cc1c(=O)n(C)c(Nc2ccc(I)cc2F)c2c(=O)n(C)c(=O)n(-c3cccc(C(=O)NC4CC4)c3)c12 [Compound 54, N-cyclopropyl-3-(5-((2-fluoro-4-iodophenyl)amino)-3,6,8-trimethyl-2,4,7-trioxo-3,4,6,7-tetrahydropyrido[4,3-d]pyrimidin-1(2H)-yl)benzamide]",IC80,1 to 3 nM
"Cc1c(=O)n(C)c(Nc2ccc(I)cc2F)c2c(=O)n(CCO)c(=O)n(-c3cccc(C(=O)NC4CC4)c3)c12 [Compound 55, N-cyclopropyl-3-(5-((2-fluoro-4-iodophenyl)amino)-3-(2-hydroxyethyl)-6,8-dimethyl-2,4,7-trioxo-3,4,6,7-tetrahydropyrido[4,3-d]pyrimidin-1(2H)-yl)benzamide]",IC80,4 to 100 nM
"Cc1c(=O)n(C)c(Nc2ccc(I)cc2F)c2c(=O)n(C)c(=O)n(-c3cccc(C(=O)N4CCC4)c3)c12 [Compound 56, 1-(3-(azetidine-1-carbonyl)phenyl)-5-((2-fluoro-4-iodophenyl)amino)-3,6,8-trimethylpyrido[4,3-d]pyrimidine-2,4,7(1H,3H,6H)-trione]",IC80,1 to 3 nM
